{"source": "patent US20180042874A1", "about": "“METHOD FOR TREATING OSTEOPOROSIS” (China Medical University, priority 2016, published 2018)", "key": {"[1]": {"test_system": "osteoclast differentiation induced by receptor activator of nuclear factor κB ligand in RAW 264.7 cells", "assay": "Osteoclast differentiation test (tartrate-resistant acid phosphatase staining)", "type": "cell-based, mouse", "excerpt": "The present invention used monocyte/macrophage cell line RAW 264.7 from mouse as an experimental model of the osteoclast differentiation system. RAW 264.7 cells differentiated into osteoclasts in an environment containing receptor activator of nuclear factor κB ligand. RAW 264.7 was obtained from a tumor induced by Abelson murine leukemia virus and purchased from the American Type Culture Collection (ATCC; Rockville, Md.). To culture osteoclasts, RAW 264.7 cells were used, cultured in a 24-well plate, the number of cells in each well was 1×10^4 cell/ml and cultured in a medium containing 100 ng/ml of receptor activator of nuclear factor κB ligand or co-treated with different concentrations of the compound of formula I.\nIn order to simulate physiological functions of the bone, we simulated the in vivo environment and some hormones essential to differentiation were added. The hormone environment suitable for […] cells was simulated for osteoclast differentiation. […] Markers for osteoclast differentiation were evaluated by staining with tartrate-resistant acid phosphatase. […]\nOsteoclast formation was detected by quantifying the staining positive rate of tartrate-resistant acid phosphatase (387-A, Sigma-Aldrich, St. Louis, Mo.). […]"}, "ERK": {"test_system": "ERK", "assay": "Western blot of MAPK pathway, phosphorylated ERK", "type": "cell-based, mouse", "details": "10 μg/ml co-treated with 100 ng/ml RANKL, 0-60 minutes", "method": "(§1) The effect of the compound of formula I on the protein expression of osteoclast MAPKs pathways induced by receptor activator of nuclear factor κB ligand was studied, experiments were performed by using the Western blot method; RAW 264.7 cells were rinsed in ice-cold PBS, cell lysis buffer was added, the components of the buffer solution included: 10 mM 4-(2-hydroxyethyl)-1-piperazineethanesulfonic acid (HEPES), 1.5 mM MgCl2, 0.5 mM dithiothreitol (DTT), 0.5 μg/ml leupeptin and 6.4% Nonidet P-40, reacted on ice for 15 minutes. The cells were scraped off with a spatula, collected into a 1.5 ml centrifuge tube, the cells were thoroughly broken by using a shaker; centrifuged at 12,000 rpm, 4° C. for 10 minutes; supernatant was added into a new 1.5 ml centrifuge tube; boiled with IX sodiumdodecyl sulfate (SDS) sample buffer, followed by electrophoresis using 10 to 12% SDS-PAGE. […] The transfer membrane was rinsed again and the membrane loaded with chemical luminescence reagent ECL was allowed to react with a photosensitive sheet in a darkroom for a suitable period of time, the photosensitive sheet then reacted with the developer. After the photosensitive sheet was exposed to light a band-shaped antibody-binding proteins was observed, quantified by the density of the bands. […]"}, "p38": {"test_system": "p38", "assay": "Western blot of MAPK pathway, phosphorylated p38", "type": "cell-based, mouse", "details": "10 μg/ml co-treated with 100 ng/ml RANKL, 0-60 minutes", "method": "as §1"}, "[2]": {"assay": "Liver and kidney toxicity in ovariectomized osteoporosis rat model", "type": "in vivo, Sprague-Dawley (SD) female rats", "details": "ovariectomized rats, compared to commercially available drugs", "method": "Inducing osteoporosis animal models and experimental methods: • 1. 6-month old Sprague-Dawley (SD) female rats were purchased; • 2. These rats were divided into 7 groups, of which Group 1 was given pseudo-surgery, Group 2-7 underwent bilateral ovariectomies; • 3. […] Body weight and bone density were measured weekly, blood was drawn until the 118th day; • 5. Rats were then sacrificed to obtain kidneys, livers and rat tibia; • 6. Data were consolidated and processed. [table]"}}, "data": [{"smiles": "CNC(=O)N[C@]1(C)CCC[C@@]2(C)C3CC[C@@]4(C)C[C@]3(CCC21)CC4=O", "note": "(single isomer, unassigned; ent-16) [compound of formula I, ent-16-oxobeyeran-19-N-methylureido]", "values": [{"measurement": "osteoclast differentiation over time (TRAP-positive multinucleated cells)", "setting": "[1]; 10 μg/ml co-treated with 100 ng/ml RANKL, 2, 4, 6 days", "value": "significant and inhibitory effect"}, {"measurement": "level of osteoclast differentiation (TRAP-positive multinucleated cells)", "setting": "[1]; 10 μg/ml co-treated with 100 ng/ml RANKL, 6 days", "value": "decrease in the level of osteoclast differentiation"}, {"measurement": "expression of phosphorylated ERK", "setting": "ERK", "value": "decreased"}, {"measurement": "expression of phosphorylated p38", "setting": "p38", "value": "decreased"}, {"measurement": "cytotoxicity in kidney (blood urea nitrogen, plasma creatinine)", "setting": "[2]", "value": "less cytotoxicity in kidney than Zoledronic acid"}, {"measurement": "cytotoxicity in liver (alanine aminotransferase)", "setting": "[2]", "value": "less cytotoxicity in liver than Proliaor"}]}]}
